Reference: US8188301B2, “Disubstituted phenylpyrrolidines as modulators of cortical catecholaminergic neurotransmission” (NSAB, Filial af NeuroSearch Sweden AB, Sverige, priority 2007, dated 2012)
Structures can show the parent of a compound that is named as a salt.

SMILES	melting point [°C]
CCCN1CCC(O)(c2ccc(F)c(Cl)c2)C1 (centres unmarked) (as salt: fumaric acid salt)	157.9
C=CCN1CCC(O)(c2cccc(F)c2F)C1 (centres unmarked) (as salt: oxalic acid salt) [Example 41]	120
CN1CCC(O)(c2ccc(F)cc2F)C1 (centres unmarked) (as salt: oxalic acid salt)	117 to 119
CN1CCC(O)(c2cccc(Cl)c2F)C1 (centres unmarked) (as salt: oxalic acid salt)	123 to 125
CCN1CCC(O)(c2ccc(F)c(F)c2)C1 (centres unmarked) (as salt: fumaric acid salt)	136 to 137
CCN1CCC(O)(c2cc(F)cc(F)c2)C1 (single isomer, unassigned; (+)) (as salt: oxalic acid salt) [Example 2, (+)-3-(3,5-DIFLUOROPHENYL)-1-ETHYLPYRROLIDIN-3-OL]	137 to 139
CCN1CCC(O)(c2cccc(Cl)c2F)C1 (centres unmarked) (as salt: oxalic acid salt) [Example 35]	71 to 74
CCN1CCC(O)(c2cccc(F)c2F)C1 (centres unmarked) (as salt: fumaric acid salt) [Example 4, 3-(2,3-DIFLUOROPHENYL)-1-ETHYLPYRROLIDIN-3-OL]	119 to 120
Fc1cc(F)cc(C2(F)CCNC2)c1 (centres unmarked) (as salt: oxalic acid salt) [Example 13, 3-(3,5-DIFLUOROPHENYL)-3-FLUOROPYRROLIDINE]	176 to 177
OC1(c2cccc(F)c2F)CCN(CC2CC2)C1 (centres unmarked) (as salt: oxalic acid salt) [Example 49]	172.8
CCCN1CCC(O)(c2cc(F)cc(F)c2)C1 (centres unmarked) (as salt: fumaric acid salt) [Example 9, 3-(3,5-DIFLUOROPHENYL)-1-PROPYLPYRROLIDIN-3-OL]	136 to 137
CC(C)CN1CCC(O)(c2cccc(F)c2F)C1 (centres unmarked) (as salt: oxalic acid salt) [Example 39]	176
CC(C)CN1CCC(O)(c2cccc(F)c2F)C1 (centres unmarked) (as salt: oxalic acid salt) [Example 61]	168 to 169
CN1CCC(O)(c2cc(F)cc(Cl)c2)C1 (centres unmarked) (as salt: oxalic acid salt) [Example 66]	114 to 115
COCCN1CCC(O)(c2cccc(F)c2F)C1 (single isomer, unassigned; (+)) (as salt: oxalic acid salt) [Example 60, (+)-3-(2,3-DIFLUOROPHENYL)-1-(2-METHOXYETHYL)PYRROLIDIN-3-OL]	149 to 150
CCCN1CCC(O)(c2cc(F)cc(Cl)c2)C1 (centres unmarked) (as salt: oxalic acid salt)	157.2
CCCN1CCC(O)(c2cccc(F)c2F)C1 (centres unmarked) (as salt: fumaric acid salt) [Example 33]	97 to 100
C=CCN1CCC(O)(c2cc(F)cc(F)c2)C1 (centres unmarked) (as salt: oxalic acid salt) [Example 55]	104 to 105
CCCN1CCC(O)(c2ccc(F)c(F)c2)C1 (centres unmarked) (as salt: fumaric acid salt) [Example 27]	127 to 129
CCN1CCC(O)(c2ccc(F)c(F)c2)C1 (centres unmarked) (as salt: fumaric acid salt) [Example 12, 3-(3,4-DIFLUOROPHENYL)-1-ETHYLPYRROLIDIN-3-OL]	157 to 158

SMILES	melting point [°C]
C=CCN1CCC(O)(c2cc(F)cc(F)c2)C1 (centres unmarked) (as salt: oxalic acid salt) [Example 44]	102 to 103
CCN1CCC(O)(c2ccc(Cl)c(Cl)c2)C1 (centres unmarked) (as salt: fumaric acid salt) [Example 10, 3-(3,4-DICHLOROPHENYL)-1-ETHYLPYRROLIDIN-3-OL]	184 to 185
CCN1CCC(O)(c2cc(F)cc(Cl)c2)C1 (centres unmarked) (as salt: oxalic acid salt) [Example 31]	117 to 118
CCN1CCC(O)(c2cccc(Cl)c2F)C1 (centres unmarked) (as salt: fumaric acid salt)	142 to 145.5
Fc1cccc(C2(F)CCNC2)c1F (centres unmarked) (as salt: hydrochloric acid salt) [Example 23, 3-(2,3-DIFLUOROPHENYL)-3-FLUOROPYRROLIDINE]	136
CCN1CCC(O)(c2cccc(F)c2F)C1 (single isomer, unassigned; (-)) (as salt: oxalic acid salt) [Example 32, (−)-3-(2,3-DIFLUOROPHENYL)-1-ETHYLPYRROLIDIN-3-OL]	118 to 120
FC1(c2cc(Cl)cc(Cl)c2)CCNC1 (centres unmarked) (as salt: hydrochloric acid salt) [Example 14, 3-(3,5-DICHLOROPHENYL)-3-FLUOROPYRROLIDINE]	201 to 202
CC(C)CN1CCC(O)(c2cc(F)cc(F)c2)C1 (centres unmarked) (as salt: oxalic acid salt) [Example 46]	162 to 163
CC(C)CN1CCC(O)(c2cc(F)cc(F)c2)C1 (centres unmarked) (as salt: oxalic acid salt) [Example 53]	164 to 165
OC1(c2cccc(F)c2F)CCN(CCC(F)(F)F)C1 (single isomer, unassigned; (+)) (as salt: oxalic acid salt) [Example 63, (+)-3-(2,3-DIFLUOROPHENYL)-1-(3,3,3-TRIFLUOROPROPYL)PYRROLIDIN-3-OL]	144 to 145
CCN1CCC(O)(c2cccc(Cl)c2Cl)C1 (centres unmarked) (as salt: oxalic acid salt)	206 to 207
CCN1CCC(O)(c2cc(F)cc(F)c2)C1 (single isomer, unassigned; (-)) (as salt: oxalic acid salt) [Example 1, (−)-3-(3,5-DIFLUOROPHENYL)-1-ETHYLPYRROLIDIN-3-OL]	111 to 112
COCCN1CCC(O)(c2cc(F)cc(F)c2)C1 (single isomer, unassigned; (-)) (as salt: oxalic acid salt) [Example 45, (−)-3-(3,5-DIFLUOROPHENYL)-1-(2-METHOXYETHYL)PYRROLIDIN-3-OL]	130 to 131
CC(C)N1CCC(O)(c2ccc(F)c(F)c2)C1 (centres unmarked) (as salt: fumaric acid salt)	143 to 147
CCCN1CCC(O)(c2cc(F)cc(F)c2)C1 (centres unmarked) (as salt: oxalic acid salt) [Example 29]	117 to 118
CN1CCC(O)(c2cc(F)cc(F)c2)C1 (centres unmarked) (as salt: oxalic acid salt) [Example 18]	159 to 162
CN1CCC(F)(c2cc(F)cc(F)c2)C1 (centres unmarked) (as salt: oxalic acid salt) [Example 11, 3-(3,5-DIFLUOROPHENYL)-3-FLUORO-1-METHYLPYRROLIDINE]	128 to 129
OC1(c2cccc(F)c2F)CCN(CC2CC2)C1 (centres unmarked) (as salt: oxalic acid salt) [Example 64]	170 to 171
CCCCN1CCC(O)(c2cccc(F)c2F)C1 (centres unmarked) (as salt: oxalic acid salt) [Example 58]	157 to 158
CCN1CCC(O)(c2cc(F)cc(Cl)c2)C1 (centres unmarked) (as salt: oxalic acid salt) [Example 5, 3-(3-CHLORO-5-FLUOROPHENYL)-1-ETHYLPYRROLIDIN-3-OL]	169 to 170

SMILES	melting point [°C]
CN1CCC(O)(c2cccc(F)c2F)C1 (centres unmarked) (as salt: oxalic acid salt) [Example 59]	131 to 132
COCCN1CCC(O)(c2cccc(F)c2F)C1 (single isomer, unassigned; (-)) (as salt: oxalic acid salt) [Example 42, (−)-3-(2,3-DIFLUOROPHENYL)-1-(2-METHOXYETHYL)PYRROLIDIN-3-OL]	146.7
CN1CCC(O)(c2cccc(F)c2F)C1 (centres unmarked) (as salt: oxalic acid salt) [Example 40]	134.3
CCCN1CCC(O)(c2ccc(F)c(F)c2)C1 (centres unmarked) (as salt: fumaric acid salt) [Example 28]	128 to 129
CCCCN1CCC(O)(c2cccc(F)c2F)C1 (centres unmarked) (as salt: oxalic acid salt) [Example 38]	155.3
C=CCN1CCC(O)(c2cccc(F)c2F)C1 (centres unmarked) (as salt: oxalic acid salt) [Example 62]	119 to 120
CCN1CCC(O)(c2cccc(Cl)c2F)C1 (centres unmarked) (as salt: oxalic acid salt) [Example 37]	72 to 74
CN1CCC(O)(c2ccc(F)c(F)c2)C1 (centres unmarked) (as salt: fumaric acid salt)	164 to 166
CCCN1CCC(O)(c2cc(F)cc(F)c2)C1 (centres unmarked) (as salt: oxalic acid salt) [Example 30]	118 to 119
CCCN1CCC(O)(c2ccc(F)c(F)c2)C1 (centres unmarked) (as salt: oxalic acid salt) [Example 7, 3-(3,4-DIFLUOROPHENYL)-1-PROPYLPYRROLIDIN-3-OL]	131 to 132
CCCN1CCC(O)(c2cccc(F)c2F)C1 (centres unmarked) (as salt: fumaric acid salt) [Example 34]	95 to 98
CN1CCC(O)(c2cc(F)cc(F)c2)C1 (centres unmarked) (as salt: oxalic acid salt) [Example 52]	150
COCCN1CCC(O)(c2cc(F)cc(F)c2)C1 (single isomer, unassigned; (+)) (as salt: oxalic acid salt) [Example 54, (+)-3-(3,5-DIFLUOROPHENYL)-1-(2-METHOXYETHYL)PYRROLIDIN-3-OL]	131 to 132
OC1(c2cccc(F)c2F)CCN(CCC(F)(F)F)C1 (single isomer, unassigned; (-)) (as salt: oxalic acid salt) [Example 48, (−)-3-(2,3-DIFLUOROPHENYL)-1-(3,3,3-TRIFLUOROPROPYL)PYRROLIDIN-3-OL]	144
CCN1CCC(O)(c2ccc(F)c(Cl)c2)C1 (centres unmarked) (as salt: fumaric acid salt) [Example 3, 3-(3-CHLORO-4-FLUOROPHENYL)-1-ETHYLPYRROLIDIN-3-OL]	157 to 158
CCN1CCC(O)(c2cc(F)cc(Cl)c2)C1 (centres unmarked) (as salt: oxalic acid salt) [Example 67]	113 to 114
CN1CCC(O)(c2cc(F)cc(F)c2)C1 (centres unmarked) (as salt: oxalic acid salt) [Example 47]	134 to 135
CN1CCC(O)(c2cc(F)cc(Cl)c2)C1 (centres unmarked) (as salt: oxalic acid salt) [Example 65]	117 to 118
CCCCN1CCC(O)(c2cc(F)cc(F)c2)C1 (centres unmarked) (as salt: oxalic acid salt)	146 to 147
